Test results as given in US10077265B2, “Substituted oxopyridine derivatives” (BAYER PHARMA AKTIENGESELLSCHAFT, priority 2014, dated 2018).

These molecules were tested against human plasma kallikrein (Homo sapiens (Human), UniProt P03952) (assay: Determination of the plasma kallikrein activity (fluorogenic peptide substrate)). Conditions: plasma kallikrein from Kordia, substrate H-Pro-Phe-Arg-AMC, 30 min at 22° C.
Sequence of human plasma kallikrein (P03952 391-638): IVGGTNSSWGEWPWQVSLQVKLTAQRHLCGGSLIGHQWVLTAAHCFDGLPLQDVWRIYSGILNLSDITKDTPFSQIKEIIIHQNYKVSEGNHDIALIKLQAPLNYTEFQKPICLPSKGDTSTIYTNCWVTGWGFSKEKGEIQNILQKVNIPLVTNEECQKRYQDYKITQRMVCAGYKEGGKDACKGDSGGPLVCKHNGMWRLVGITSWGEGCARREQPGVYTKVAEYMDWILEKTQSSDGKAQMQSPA
Sequence of human plasma kallikrein (P03952 20-390 partner): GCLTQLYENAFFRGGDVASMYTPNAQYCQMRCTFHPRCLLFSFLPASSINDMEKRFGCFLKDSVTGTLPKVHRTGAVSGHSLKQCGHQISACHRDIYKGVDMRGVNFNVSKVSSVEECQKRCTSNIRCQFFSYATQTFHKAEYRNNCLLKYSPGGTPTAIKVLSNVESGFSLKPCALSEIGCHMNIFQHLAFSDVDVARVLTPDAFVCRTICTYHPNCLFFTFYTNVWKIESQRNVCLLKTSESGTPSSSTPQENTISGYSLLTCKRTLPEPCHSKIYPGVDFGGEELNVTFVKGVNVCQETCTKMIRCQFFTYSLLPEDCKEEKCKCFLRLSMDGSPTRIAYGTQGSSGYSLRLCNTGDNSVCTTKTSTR
Type: biochemical
Protocol: To determine the plasma kallikrein inhibition of the substances according to the invention, a biochemical test system is used which utilizes the reaction of a peptidic plasma kallikrein substrate to determine the enzymatic activity of human plasma kallikrein. Here, plasma kallikrein cleaves from the peptic plasma kallikrein substrate the C-terminal aminomethylcoumarin (AMC), the fluorescence of which is measured. The determinations are carried out in microtitre plates.
1 μl of the diluted substance solutions is placed into each of the wells of white microtitre plates from Greiner (384 wells). 20 μl of assay buffer (50 mM Tris/HCl pH 7.4; 100 mM sodium chloride solution; 5 mM of calcium chloride solution; 0.1% of bovine serum albumin) and 20 μl of plasma kallikrein from Kordia (0.6 nM in assay buffer) are then added successively. After 15 min of incubation, the enzyme reaction is started by addition of 20 μl of the substrate H-Pro-Phe-Arg-AMC dissolved in assay buffer (10 μM in assay buffer) from Bachem, the mixture is incubated at room temperature (22° C.) for 30 min and fluorescence is then measured (excitation: 360 nm, emission: 460 nm). The measured emissions of the test batches with test substance are compared to those of control batches without test substance (only dimethyl sulphoxide instead of test substance in dimethyl sulphoxide), and IC50 values are calculated from the concentration/activity relationships.
CCC(C(=O)Nc1ccn2ncc(C(=O)O)c2c1)n1cc(OC)c(-c2cc(Cl)ccc2C#N)cc1=O (racemic) [Example 1, 5-({2-[4-(5-Chloro-2-cyanophenyl)-5-methoxy-2-oxopyridin-1(2H)-yl]butanoyl}amino)pyrazolo-[1,5-a]pyridine-3-carboxylic acid (racemate)] gave an IC50 of 5 nM.
Molecule COCCC(C(=O)Nc1ccn2ncc(C(=O)O)c2c1)n1cc(OC)c(-c2cc(Cl)ccc2C#N)cc1=O (racemic) [Example 2, 5-({2-[4-(5-Chloro-2-cyanophenyl)-5-methoxy-2-oxopyridin-1(2H)-yl]-4-methoxybutanoyl}-amino)pyrazolo[1,5-a]pyridine-3-carboxylic acid (racemate)] has an IC50 of 2.5 nM.
For COCCC(C(=O)Nc1ccn2ncc(C(=O)N(C)C)c2c1)n1cc(OC)c(-c2cc(Cl)ccc2C#N)cc1=O (racemic) [Example 6, 5-({2-[4-(5-Chloro-2-cyanophenyl)-5-methoxy-2-oxopyridin-1(2H)-yl]-4-methoxybutanoyl}amino)-N,N-dimethylpyrazolo[1,5-a]pyridine-3-carboxamide (racemate)], the IC50 was 18 nM.
CCCNC(=O)c1cnn2ccc(NC(=O)C(CCOC)n3cc(OC)c(-c4cc(Cl)ccc4C#N)cc3=O)cc12 (racemic) [Example 7, 5-({2-[4-(5-Chloro-2-cyanophenyl)-5-methoxy-2-oxopyridin-1(2H)-yl]-4-methoxybutanoyl}amino)-N-propylpyrazolo[1,5-a]pyridine-3-carboxamide (racemate)] showed an IC50 of 6.4 nM.
In the case of COCCNC(=O)c1cnn2ccc(NC(=O)C(CCOC)n3cc(OC)c(-c4cc(Cl)ccc4C#N)cc3=O)cc12 (racemic) [Example 8, 5-({2-[4-(5-Chloro-2-cyanophenyl)-5-methoxy-2-oxopyridin-1(2H)-yl]-4-methoxybutanoyl}amino)-N-(2-methoxyethyl)pyrazolo[1,5-a]pyridine-3-carboxamide (racemate)], the IC50 is reported as 3.8 nM.
COCCCNC(=O)c1cnn2ccc(NC(=O)C(CCOC)n3cc(OC)c(-c4cc(Cl)ccc4C#N)cc3=O)cc12 (racemic) [Example 9, 5-({2-[4-(5-Chloro-2-cyanophenyl)-5-methoxy-2-oxopyridin-1(2H)-yl]-4-methoxybutanoyl}amino)-N-(3-methoxypropyl)pyrazolo[1,5-a]pyridine-3-carboxamide (racemate)] was tested, and the IC50 was 3 nM.
For COCCC(C(=O)Nc1ccn2ncc(C(=O)NCCOC(F)(F)F)c2c1)n1cc(OC)c(-c2cc(Cl)ccc2C#N)cc1=O (racemic) [Example 10, 5-({2-[4-(5-Chloro-2-cyanophenyl)-5-methoxy-2-oxopyridin-1(2H)-yl]-4-methoxybutanoyl}amino)-N-[2-(trifluoromethoxy)ethyl]pyrazolo[1,5-a]pyridine-3-carboxamide (racemate)], the IC50 was 9.5 nM.
With COCCC(C(=O)Nc1ccn2ncc(C(=O)NCCC(F)(F)F)c2c1)n1cc(OC)c(-c2cc(Cl)ccc2C#N)cc1=O (racemic) [Example 11, 5-({2-[4-(5-Chloro-2-cyanophenyl)-5-methoxy-2-oxopyridin-1(2H)-yl]-4-methoxybutanoyl}amino)-N-(3,3,3-trifluoropropyl)pyrazolo[1,5-a]pyridine-3-carboxamide (racemate)] the IC50 was 6.6 nM.
In the case of COCCC(C(=O)Nc1ccn2ncc(C(=O)NCC(F)(F)F)c2c1)n1cc(OC)c(-c2cc(Cl)ccc2C#N)cc1=O (racemic) [Example 12, 5-({2-[4-(5-Chloro-2-cyanophenyl)-5-methoxy-2-oxopyridin-1(2H)-yl]-4-methoxybutanoyl}amino)-N-(2,2,2-trifluoroethyl)pyrazolo[1,5-a]pyridine-3-carboxamide (racemate)], the IC50 is reported as 5 nM.
With COCCC(C(=O)Nc1ccn2ncc(C(=O)NCCCO)c2c1)n1cc(OC)c(-c2cc(Cl)ccc2C#N)cc1=O (racemic) [Example 13, 5-({2-[4-(5-Chloro-2-cyanophenyl)-5-methoxy-2-oxopyridin-1(2H)-yl]-4-methoxybutanoyl}amino)-N-(3-hydroxypropyl)pyrazolo[1,5-a]pyridine-3-carboxamide (racemate)] the IC50 was 5.2 nM.
COCCC(C(=O)Nc1ccn2ncc(C(=O)NCCO)c2c1)n1cc(OC)c(-c2cc(Cl)ccc2C#N)cc1=O (racemic) [Example 14, 5-({2-[4-(5-Chloro-2-cyanophenyl)-5-methoxy-2-oxopyridin-1(2H)-yl]-4-methoxybutanoyl}amino)-N-(2-hydroxyethyl)pyrazolo[1,5-a]pyridine-3-carboxamide (racemate)] showed an IC50 of 3.8 nM.
